Data set [1] concerns VSMC. As to the kind of experiment: Chromatin cleavage assay in non-transfected VSMC. The format is cell-based, rat. The protocol:
Cells were incubated in K^+-containing medium consisting of 91 mM NaCl, 5 mM KCl, 0.9 mM NaH2PO4, 44 mM NaHCO3, 1.8 mM CaCl2, 0.8 mM MgCl2, 33 mM HEPES and 5 mM D-glucose (pH 7.4) (lines 1 and 2) or in K^+-depleted medium (equimolar substitution of KCl by NaCl, line 3) with or without 10% calf serum (CS) and 1 mM ouabain as indicated. In experiments with VSMC-MYC and VSMC-E1A, cells were preincubated for 1 hr with ouabain or with K^+-depleted medium in the presence of CS and then subjected to treatment with serum-free media. After 24 hours (VSMC) or 6 hours (VSMC-MYC and VSMC-E1A), the content of chromatin fragments was measured as described in Experimental Procedures. Mean values±S.E. obtained in 3 experiments performed in quadruplicate (VSMC) or triplicate (VSMC-MYC, VSMC-E1A) are given. ★, ★★ p<0.05 and 0.001 compared to the controls.
(§1) VSMC growing in 6-well (LDH release) or 24-well (chromatin cleavage assay) plates were preincubated for 3 hours with or without 1 mM ouabain. In part of the experiments, the cells were subjected to 30 min incubation at 46° C. (heat-treated cells, line 3). They were then incubated in the absence or presence of 10% calf serum during additional 8 hr and chromatin cleavage and LDH release were measured as indicated in Experimental Procedures and with a spectrophotometric kit (Sigma), respectively. Means±S.E. from experiments performed in triplicate (LDH release) or quadruplicate (chromatin cleavage) are given. ★, ★★ p<0.05 and 0.001 compared to ouabain-untreated cells. #p<0.001 compared to serum-supplied, heat-untreated cells.
Cells. VSMC were obtained by explant methods from aortas of 10- to 13-week-old male rats as described previously (17), cultured in DMEM with 10% calf serum, 100 U/ml penicillin, 100 µg/ml streptomycin and used between 10 to 16 passages. Cells transfected with c-myc (VSMC-MYC) and E1A-adenovirus (VSMC-E1A) were obtained in accordance with a previously-described protocol (18,19) and were cultured in the same medium with the addition of 500 µg/ml genticin. Jurkat cells were obtained from the American Type Culture Collection and cultured in RPMI 1640 medium supplied with 10% calf serum, antibiotics, sodium pyruvate, glutamate and β-mercaptoethanol.
Chromatin cleavage assay. Chromatin cleavage in VSMC was estimated by a technique described previously in detail (10). Briefly, VSMC grown in 24-well dishes were labeled for 24 hours in serum-supplied DMEM with [^3H]-thymidine (1 μCi/ml), washed with 2×2 ml of DMEM and incubated in serum-supplied DMEM. […] After 15 min, the cell lysate was transferred to Ependorf tubes, sedimented (12,000 rpm, 10 mm), and 1 ml of supernatant was transferred for the measurement of radioactivity (A1t). The remaining radioactivity from pellets and wells was extracted with 0.5 ml of 1% SDS/4 mM EDTA mixture, combined and counted (A2). Chromatin cleavage was quantified as the content of chromatin fragments normalized by total content of [^3H]-labeled DNA in accordance with the equation [1.5×(A1t−A1o)/(A2+A1t−1.5A1o)]×100% where A1o is the value of A1t before induction of apoptosis. […] At the time intervals shown in FIG. 4, 100 μl of cell suspension was mixed with 100 μl of PBS contairung 0.5% triton X100, and the content of chromatin fragments was measured as described previously in detail (20).

Data set [2] relates to VSMC. Put plainly: LDH release (necrosis marker) in VSMC. The class given is cell-based, rat. As to the method: as §1
Data set [3] deals with VSMC-E1A. As to the kind of experiment: Cell morphology by phase contrast microscopy in VSMC-E1A. The format is cell-based, rat. The settings on record: 1 mM ouabain pretreatment, 6 hours serum-deprived medium. The protocol:
(§2) FIG. 3. Effect of ouabain on morphology (A) and DNA laddering (B and C) in VSMC-E1A. In experiments with ouabain, cells were pretreated with 1 mM of this compound 1 hour before 6 hours exposure to serum-free medium. A. Cell morphology was evaluated by phase contrast microscopy without preliminary fixation. a, c) DMEM containing 10% calf serum; b, d) serum-free DMEM; a, b) without ouabain; c, d) in the presence of ouabain. Micro graphs were prepared using a Nikon phase contrast microscope at ×100 magnification. Apoptotic cells are shown by arrows. B. DNA laddering (left part of the figure) was analyzed with a PhosphorImager, and relative content of low molecular weight DNA fragments (1,500−125 bp−right part of the figure) in cells incubated with 10% calf serum (CS) in the absence of ouabain was taken as 100%. Means±S.E. obtained in 2 experiments performed in triplicate are shown.

The subject of data set [4] is VSMC-E1A. As to the kind of experiment: 3'-end DNA labeling / DNA laddering in VSMC-E1A. The format is cell-based, rat. The note with it: 1 mM ouabain, serum deprivation. As to the method: as §2
3′-end DNA labeling. VSMC-E1A seeded in 75 cm^2 flasks were treated with 4 ml of lysis buffer containing 50 mM tris-HCI, 20 mM EDTA (pH 8.0), 0.5% SDS and 500 μg/ml proteinase K. The lysate was incubated at 50° C. for 3 hours, mixed with 250 μg/ml RNAase A and incubated for 1 hour at 37° C. […] After 1 hour incubation at 37° C., the aliquots were loaded on 1.5% agarose gel, run at 100 V for 3 to 4 hours, transferred onto a nylon membrane (Hybond N+, Amersham), and analyzed with a PhosphorImager. […]

Data set [5] concerns VSMC. Put plainly: Protein synthesis in VSMC. The note with it: 8 hours incubation with ouabain, data not shown.
Where [6] appears, read: serum-deprived VSMC, 3 hours preincubation 1 mM ouabain, additional 8 hr.
The mark [7] stands for this setting: serum-supplied VSMC, 3 hours preincubation 1 mM ouabain, additional 8 hr.
Where [8] appears, read: serum-supplied, heat-treated (46° C., 30 min) VSMC, 1 mM ouabain, 8 hr.

The values that follow come from US6699676B1, “Uses of ouabain and ouabain-like molecules in apoptosis related pathologies” (Corporation du Centre de Recherche du Centre, Hospitalier …, priority 1999, dated 2004).

Marks after values point to notes of the source that are not given here.

For `C[C@@H]1O[C@@H](O[C@H]2C[C@@H](O)[C@]3(CO)[C@H]4[C@H](O)C[C@]5(C)[C@@H](C6=CC(=O)OC6)CC[C@]5(O)[C@@H]4CC[C@]3(O)C2)[C@H](O)[C@H](O)[C@H]1O` [Ouabain, 1β,3β,5,11α,14,19-hexahydroxycard 20 [22]-enolide 3-[6-deoxy-α-L-mannopyrano-sidel]], the “Chromatin fragments (%)” value came out at 1.6 ± 0.3% in the data set on VSMC [1] (VSMC, 10% CS, 1 mM ouabain, 24 hours); 2.5 ± 0.6 % in the data set on VSMC [1] (VSMC, CS-free, 1 mM ouabain, 24 hours); 1.8 ± 0.3 % in the data set on VSMC [1] (setting [6]); 1.3 ± 0.4 % with VSMC [1] (setting [7]); 1.6 ± 0.4% with VSMC [1] (setting [8]). The LDH release entry in the data set on VSMC [2] (VSMC, 8 hours incubation with ouabain) is given as “did not observe any significant effect”. The “heat stress-induced LDH-release” value in the data set with VSMC [2] (VSMC, heat stress 46° C., 30 min, ouabain) was “did not observe modulation”. For the same molecule, the “LDH release (%)” value in the data set with VSMC [2] (setting [6]) is reported as 1.8 ± 0.4%; in the data set with VSMC [2] (setting [7]), 1.2 ± 0.3%; in the data set with VSMC [2] (setting [8]), 11.0 ± 2.8# %. The “number of apoptotic cells” value in the data set with VSMC-E1A [3] is given as “sharply decreased the number of apoptotic cells”. Moreover, the “DNA laddering and low molecular weight 3'-end labeled DNA fragments” value in the data set with VSMC-E1A [4] was “prevented DNA laddering”. Further, the protein synthesis result with VSMC [5] is “did not observe any significant effect”.
